Measurements published in patent US11554171B2, “Compounds and methods for the targeted degradation of bromodomain-containing proteins” (Arvinas Operations, Inc., priority 2015, dated 2023).

System: c-myc in 22RV-1 cells
Assay: Human c-myc ELISA assay
Assay type: cell-based
Conditions: Homo sapiens; for Emax: 22Rv1, 18 h, read-out: Degradation of BRD4: Maximum inhibition (%) c-Myc ELISA in 22RV1 cells; for DC50: 22Rv1, read-out: Degradation of BRD4: DC50 (uM) c-Myc ELISA in 22RV1 cells
Outline: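 22RV-1 cells treated 18 h with 8-point 1:3 compound dilutions (final top 300 nM or 1 μM, 0.1% DMSO). Cells lysed in RIPA buffer with protease/phosphatase inhibitors, and c-myc protein in cleared lysate quantified by ELISA against a standard curve. DC50 reported for c-myc suppression.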

Row | SMILES | DC50 [µM] | Emax [%]
1 | Cc1ncsc1-c1ccc([C@H](C)NC(=O)[C@@H]2C[C@@H](O)CN2C(=O)[C@@H](NC(=O)CN2CCC(O[C@H]3C[C@H](NC(=O)c4ccc5c6ncc(-c7c(C)noc7C)cc6n([C@@H](c6ccccc6)C6CCOCC6)c5c4)C3)CC2)C(C)(C)C)cc1 [Example 366, (2S,4R)-1-[(2S)-3,3-dimethyl-2-(2-{4-[(1,3-trans)-3-[3-(dimethyl-1,2-oxazol-4-yl)-5-[(R)-oxan-4-yl(phenyl)methyl]-5H-pyrido[3,2-b]indole-7-amido]cyclobutoxy]piperidin-1-yl}acetamido)butanoyl]-4-hydroxy-N-[(1S)-1-[4-(4-methyl-1,3-thiazol-5-yl)phenyl]ethyl]pyrrolidine-2-carboxamide] | < 0.01 | 100
2 | Cc1ncsc1-c1ccc(CNC(=O)[C@@H]2C[C@@H](O)CN2C(=O)[C@@H](NC(=O)Cc2cccc(CCCCNC(=O)C[C@@H]3N=C(c4ccc(Cl)cc4)c4c(sc(C)c4C)-n4c(C)nnc43)c2)C(C)(C)C)cc1 [Example 70, (2S,4R)-1-[(2S)-2-{2-[3-(4-{2-[(9S)-7-(4-chlorophenyl)-4,5,13-trimethyl-3-thia-1,8,11,12-tetraazatricyclo[8.3.0.0^2,^6]trideca-2(6),4,7,10,12-pentaen-9-yl]acetamido}butyl)phenyl]acetamido}-3,3-dimethylbutanoyl]-4-hydroxy-N-{[4-(4-methyl-1,3-thiazol-5-yl)phenyl]methyl}pyrrolidine-2-carboxamide] | 0.01 to 0.1 | 88.8
3 | Cc1ncsc1-c1ccc(CNC(=O)[C@@H]2C[C@@H](O)CN2C(=O)[C@@H](NC(=O)COCCOCCOCCOCCOc2ccc(NC(=O)C[C@@H]3N=C(c4ccc(Cl)cc4)c4c(sc(C)c4C)-n4c(C)nnc43)cc2)C(C)(C)C)cc1 [Example 12] | 0.01 to 0.1 | 100
4 | Cc1ncsc1-c1ccc([C@H](C)NC(=O)[C@@H]2C[C@@H](O)CN2C(=O)[C@@H](NC(=O)CCc2cc(F)cc(O[C@H]3C[C@@H](NC(=O)C[C@@H]4N=C(c5ccc(Cl)cc5)c5c(sc(C)c5C)-n5c(C)nnc54)C3)c2)C(C)(C)C)cc1 [Example 183, (2S,4R)-1-[(2S)-2-(3-{3-fluoro-5-[(1,3-cis)-3-{2-[(9S)-7-(4-chlorophenyl)-4,5,13-trimethyl-3-thia-1,8,11,12-tetraazatricyclo[8.3.0.0^2,^6]trideca-2(6),4,7,10,12-pentaen-9-yl]acetamido}cyclobutoxy]phenyl}propanamido)-3,3-dimethylbutanoyl]-4-hydroxy-N-[(1S)-1-[4-(4-methyl-1,3-thiazol-5-yl)phenyl]ethyl]pyrrolidine-2-carboxamide] | < 0.01 | 99
5 | Cc1ncsc1-c1ccc([C@H](C)NC(=O)[C@@H]2C[C@@H](O)CN2C(=O)[C@@H](NC(=O)COCCOc2cccc(NC(=O)C[C@@H]3N=C(c4ccc(Cl)cc4)c4c(sc(C)c4C)-n4c(C)nnc43)c2)C(C)(C)C)cc1 [Example 124] | < 0.01 | 98
6 | Cc1ncsc1-c1ccc(CNC(=O)[C@@H]2C[C@@H](O)CN2C(=O)[C@@H](NC(=O)COCCn2cc(-c3ccc([C@H](C)NC(=O)C[C@@H]4N=C(c5ccc(Cl)cc5)c5c(sc(C)c5C)-n5c(C)nnc54)cc3)cn2)C(C)(C)C)cc1 [Example 86] | 0.1 to 1 | 80
7 | Cc1ncsc1-c1ccc(CNC(=O)[C@@H]2C[C@@H](O)CN2C(=O)[C@@H](NC(=O)COCCN2CCN(c3ccc([C@H](C)NC(=O)C[C@@H]4N=C(c5ccc(Cl)cc5)c5c(sc(C)c5C)-n5c(C)nnc54)cc3)CC2)C(C)(C)C)cc1 [Example 58, (2S,4R)-1-[(2S)-2-{2-[2-(4-{4-[(1S)-1-{2-[(9S)-7-(4-chlorophenyl)-4,5,13-trimethyl-3-thia-1,8,11,12-tetraazatricyclo[8.3.0.0^2,^6]trideca-2(6),4,7,10,12-pentaen-9-yl]acetamido}ethyl]phenyl}piperazin-1-yl)ethoxy]acetamido}-3,3-dimethylbutanoyl]-4-hydroxy-N-{[4-(4-methyl-1,3-thiazol-5-yl)phenyl]methyl}pyrrolidine-2-carboxamide] | 0.1 to 1 | 88
8 | Cc1ncsc1-c1ccc([C@H](C)NC(=O)[C@@H]2C[C@@H](O)CN2C(=O)[C@@H](NC(=O)/C=C/c2cccc(O[C@H](C)CNC(=O)C[C@@H]3N=C(c4ccc(Cl)cc4)c4c(sc(C)c4C)-n4c(C)nnc43)c2)C(C)(C)C)cc1 [Example 159] | < 0.01 | 96.5
9 | Cc1ncsc1-c1ccc([C@H](C)NC(=O)[C@@H]2C[C@@H](O)CN2C(=O)[C@@H](NC(=O)c2ccc(OCCCCNC(=O)C[C@@H]3N=C(c4ccc(Cl)cc4)c4c(sc(C)c4C)-n4c(C)nnc43)cn2)C(C)(C)C)cc1 [Example 115] | < 0.01 | 100
10 | Cc1sc2c(c1C)C(c1ccc(Cl)cc1)=N[C@@H](CC(=O)NCCOCCCOCC(=O)N[C@H](C(=O)N1C[C@H](O)C[C@H]1C(=O)NCc1ccc(Cl)cc1)C(C)(C)C)c1nnc(C)n1-2 [Example 76] | 0.1 to 1 | 58.6

The next lines start with results.

Row | DC50 [µM] | SMILES | Emax [%]
11 | < 0.01 | Cc1ncsc1-c1ccc([C@H](C)NC(=O)[C@@H]2C[C@@H](O)CN2C(=O)[C@@H](NC(=O)CN2CCC(N3CCN(C(=O)C[C@@H]4N=C(c5ccc(Cl)cc5)c5c(sc(C)c5C)-n5c(C)nnc54)CC3)CC2)C(C)(C)C)cc1 [Example 335] | 97
12 | < 0.01 | Cc1ncsc1-c1ccc([C@H](C)NC(=O)[C@@H]2C[C@@H](O)CN2C(=O)[C@@H](NC(=O)/C=C/c2cc(O[C@H](C)CNC(=O)C[C@@H]3N=C(c4ccc(Cl)cc4)c4c(sc(C)c4C)-n4c(C)nnc43)ccc2F)C(C)(C)C)cc1 [Example 197] | 91.5
13 | 0.01 to 0.1 | Cc1sc2c(c1C)C(c1ccc(Cl)cc1)=N[C@@H](CC(=O)N[C@H]1C[C@H](OC3CCN(CC(=O)N[C@H](C(=O)N4C[C@H](O)C[C@H]4C(=O)N[C@@H](C)c4ccc(-c5scnc5CO)cc4)C(C)(C)C)CC3)C1)c1nnc(C)n1-2 [Example 346] | 90
14 | 0.1 to 1 | Cc1sc2c(c1C)C(c1ccc(Cl)cc1)=N[C@@H](CC(=O)N[C@H]1C[C@@H](Oc3cccc(-c4cnn([C@H](C(=O)N5C[C@H](O)C[C@H]5C(=O)N[C@@H](C)c5ccc(-n6ccnc6C)cc5)C(C)C)c4)c3)C1)c1nnc(C)n1-2 [Example 299] | 72.5
15 | 0.01 to 0.1 | Cc1ncsc1-c1ccc([C@H](C)NC(=O)[C@@H]2C[C@@H](O)CN2C(=O)[C@H](C(C)C)n2cc(-c3cc(O[C@H]4C[C@H](NC(=O)C[C@@H]5N=C(c6ccc(Cl)cc6)c6c(sc(C)c6C)-n6c(C)nnc65)C4)ccn3)cn2)cc1 [Example 304] | 95
16 | < 0.01 | Cc1ncsc1-c1ccc([C@H](C)NC(=O)[C@@H]2C[C@@H](O)CN2C(=O)[C@@H](NC(=O)c2cc3cc(OCCCNC(=O)C[C@@H]4N=C(c5ccc(Cl)cc5)c5c(sc(C)c5C)-n5c(C)nnc54)ccc3o2)C(C)(C)C)cc1 [Example 170, (2S,4R)-1-[(2S)-2-{[5-(3-{2-[(9S)-7-(4-chlorophenyl)-4,5,13-trimethyl-3-thia-1,8,11,12-tetraazatricyclo[8.3.0.0^2,^6]trideca-2(6),4,7,10,12-pentaen-9-yl]acetamido}propoxy)-1-benzofuran-2-yl]formamido}-3,3-dimethylbutanoyl]-4-hydroxy-N-[(1S)-1-[4-(4-methyl-1,3-thiazol-5-yl)phenyl]ethyl]pyrrolidine-2-carboxamide] | 97
17 | > 1 | Cc1ncsc1-c1ccc(CNC(=O)[C@@H]2C[C@@H](O)CN2C(=O)[C@H](c2cc(OCCN3CC[C@H](NC(=O)C[C@@H]4N=C(c5ccc(Cl)cc5)c5c(sc(C)c5C)-n5c(C)nnc54)C3)no2)C(C)C)cc1 [Example 309] | 18
18 | 0.01 to 0.1 | Cc1ncsc1-c1ccc(CNC(=O)[C@@H]2C[C@@H](O)CN2C(=O)[C@H](C(C)C)n2cc(-c3ccnc(O[C@H](C)CNC(=O)C[C@@H]4N=C(c5ccc(Cl)cc5)c5c(sc(C)c5C)-n5c(C)nnc54)c3)cn2)cc1 [Example 168] | 92
19 | < 0.01 | Cc1ncsc1-c1ccc([C@H](C)NC(=O)[C@@H]2C[C@@H](O)CN2C(=O)[C@H](C(C)C)n2cc(-c3ccc(O[C@H]4C[C@H](NC(=O)C[C@@H]5N=C(c6ccc(Cl)cc6)c6c(sc(C)c6C)-n6c(C)nnc65)C4)nc3)cn2)cc1 [Example 269] | 96.4
20 | 0.1 to 1 | Cc1ncsc1-c1ccc([C@H](C)NC(=O)[C@@H]2C[C@@H](O)CN2C(=O)[C@@H](NC(=O)COc2nccc(N3CCN(C(=O)C[C@@H]4N=C(c5ccc(Cl)cc5)c5c(sc(C)c5C)-n5c(C)nnc54)CC3)n2)C(C)(C)C)cc1 [Example 331] | 81.5
21 | < 0.01 | Cc1ncsc1-c1ccc([C@H](C)NC(=O)[C@@H]2C[C@@H](O)CN2C(=O)[C@@H](NC(=O)c2cc3ccc(O[C@@H](C)CNC(=O)C[C@@H]4N=C(c5ccc(Cl)cc5)c5c(sc(C)c5C)-n5c(C)nnc54)cc3o2)C(C)(C)C)cc1 [Example 221, (2S,4R)-1-[(2S)-2-[(6-{[(2S)-1-{2-[(9S)-7-(4-chlorophenyl)-4,5,13-trimethyl-3-thia-1,8,11,12-tetraazatricyclo[8.3.0.0^2,^6]trideca-2(6),4,7,10,12-pentaen-9-yl]acetamido}propan-2-yl]oxy}-1-benzofuran-2-yl)formamido]-3,3-dimethylbutanoyl]-4-hydroxy-N-[(1S)-1-[4-(4-methyl-1,3-thiazol-5-yl)phenyl]ethyl]pyrrolidine-2-carboxamide] | 100
